In PubChem BioAssay AID1645863 (Buhrlage Lab, Dana-Farber Cancer Institute and Novartis …, 2021) one finds IC50 data, which are given here for eleven compounds.

Usually IC50 stands for the concentration that inhibits the measured activity by half.

Activity calls are given as the source filed them. How the calls were made is not given here.

This experiment deals with Ubiquitin carboxyl-terminal hydrolase 10 (Homo sapiens) (UniProt Q14694). The experiment can be described thus: primary hit verification, biochemical, ubiquitin-specific protease 10 deubiquitylase inhibitors, concentration-effect titration (AID 1645863).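 Further: potency values describe inhibition of USP10 cleavage of a fluorogenic ubiquitin substrate.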 As to conditions: USP10 deubiquitinase enzymatic assay.
Chain of Ubiquitin carboxyl-terminal hydrolase 10 (Homo sapiens) (Q14694 whole entry, looked up): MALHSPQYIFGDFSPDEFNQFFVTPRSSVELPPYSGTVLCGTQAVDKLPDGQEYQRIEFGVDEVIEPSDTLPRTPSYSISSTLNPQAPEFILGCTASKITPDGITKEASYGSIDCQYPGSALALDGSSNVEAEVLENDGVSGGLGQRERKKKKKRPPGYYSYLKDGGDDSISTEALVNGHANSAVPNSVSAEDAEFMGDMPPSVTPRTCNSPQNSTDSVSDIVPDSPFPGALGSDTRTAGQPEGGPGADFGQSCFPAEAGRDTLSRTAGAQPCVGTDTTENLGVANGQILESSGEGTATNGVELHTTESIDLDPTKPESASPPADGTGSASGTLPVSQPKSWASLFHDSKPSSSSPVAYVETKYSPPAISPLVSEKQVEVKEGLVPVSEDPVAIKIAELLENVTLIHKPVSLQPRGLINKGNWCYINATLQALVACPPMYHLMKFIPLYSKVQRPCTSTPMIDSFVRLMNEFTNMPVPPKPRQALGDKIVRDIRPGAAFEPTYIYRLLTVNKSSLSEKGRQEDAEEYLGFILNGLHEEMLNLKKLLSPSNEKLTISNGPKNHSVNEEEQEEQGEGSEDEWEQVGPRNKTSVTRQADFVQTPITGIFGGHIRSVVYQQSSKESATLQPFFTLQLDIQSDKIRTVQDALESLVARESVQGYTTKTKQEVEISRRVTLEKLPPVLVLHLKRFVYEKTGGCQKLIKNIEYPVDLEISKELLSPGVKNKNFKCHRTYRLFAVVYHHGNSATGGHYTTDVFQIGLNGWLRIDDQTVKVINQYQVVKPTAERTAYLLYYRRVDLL
With `CCCCC/C=C/C=C/C(=O)OC1C(O)CC(c2ccc3c(c2O)C(=O)c2c(O)cc4cc(C)cc(O)c4c2C3=O)OC1C` (stereo unspecified), the IC50 is > 40 µM (inactive). `Cc1ccc(Cn2c(C(=O)O)c(CNCc3ccco3)c3ccccc32)cc1`: the IC50 is > 40 µM (inactive). Next, `Cc1ccc(Nc2nc(Nc3cccc(F)c3)nc3nccnc23)c(C)c1`: > 40 µM (inactive). Next, `O=C(COc1ccc(Cl)cc1)Nc1noc(-c2ccccc2)n1`: 32.5 µM. Turning to `O=c1cc(-c2ccc(O)c(O)c2)oc2cc(O[C@@H]3O[C@H](CO)[C@@H](O)[C@H](O)[C@H]3O)cc(O)c12`, the IC50 is 1.75 µM. The value for `C=C/C(=C/C(=O)C[C@H](C)C[C@@H](C)CC[C@H](O)[C@H](C)C(=O)CC(O)[C@H](C)[C@@H](C)OC(=O)C[C@@H](O)C1=C(C)C(=O)OC1=O)CC` (stereo partly specified) was 9.16 µM; that for `Cc1ncc(CO)c2c1Oc1nc(-c3cccc(Cl)c3)nc(SCC(=O)N3CCCCC3)c1C2` was > 40 µM (inactive). As for `O=C(c1ccccn1)N1CCC2(CC1)CC1(CO2)Nc2ccccc2-n2cccc21` (stereo unspecified), the IC50 is > 40 µM (inactive). As for `Cc1ncc(-c2ccc3c(c2)OCO3)c(-c2nccs2)n1`, the IC50 is > 40 µM (inactive).

Consider `Cc1ccc(NCc2cc3c(-c4cccc(F)c4)nn(-c4ccccc4)c3[nH]c2=O)cc1C`, for which the IC50 was > 40 µM (inactive).

As for `O=C(CC1C(=O)Nc2nc3ccccc3n21)Nc1cccc2ccccc12` (stereo unspecified), the IC50 was 16.5 µM.
